The source of these data is patent publication US10487071B2, “Bis-triazole compounds with anti-biofilm and anti-corrosion properties” (Université de Toulon, priority 2015, dated 2019).

One assay deals with Polaribacter sp. (TC5). Put plainly: Anti-adhesion test, strain TC5. The note with it: for activity at 200 µM: 15 h; for EC50: read-out: EC50 (effective concentration to inhibit 50% of the adhesion). Type of assay: cell-based. As for the experimental part: (§1) Bacterial strains were grown on Väätänen nine-salts solution (VNSS). When the stationary phase was reached, the bacterial suspension was centrifuged. Cells were then diluted in sterile artificial sea water (ASW) and introduced in microtiter plates (sterile black PS; Nunc, Fisher Scientific, France) with the tested compound (at eight concentrations in three replicates) in the presence of three controls: (i) non-specific staining control, (ii) adhesion control, and (iii) positive control. The maximum percentage of solvent (DMSO 2%) used to dilute the tested compound was also tested in triplicate as additional control. After incubation during an optimized adhesion time (moderately 15 h), non-adhered bacteria were eliminated and adhered cells were quantified after SYTO 61 (1 μM) staining. A percentage of inhibition was calculated per well. A sigmoid dose-response curve was obtained by plotting the percentage of inhibition as a function of the log of tested compound concentration, after mean (n=3) and standard deviation (SD) calculation per triplicate for each concentration. EC50 values were then calculated for each compound.
Polaribacter sp. (TC5) was isolated in June 2010 in the Military Harbor of Toulon (Mediterranean Sea, France) as described in F. Brian-Jaisson, A. Ortalo-Magné, L. Guentas-Dombrowsky, F. Armougom, Y. Blache, M. Molmeret, Microb. Ecol., 2014, 68, 94-110.

The nature of assay [1]: Gravimetry (weight loss), corrosion inhibition. To be noted: mild steel in 1N HCl. As for the experimental part:
The corrosion rates were determined by electrochemical impedance spectroscopy measurements and gravimetry.
Weight loss measurements were performed on 2.5×2.0×0.1 cm rectangular mild steel coupons. The mild steel coupons were immersed into non-de-aerated HCl 1N solution in absence and presence of different concentrations of compounds of general formula (I). After the elapsed time, the coupons were taken out, washed, dried and weighed accurately. Experiments were duplicated.
Weight loss experiments were done to confirm the corrosion inhibitive properties of AS164.
The inhibition efficiency, IE (%), was estimated from the weight loss experiments using the following equation:
[formula] wherein CR^o and CR are respectively the corrosion rate in the absence and presence of AS164.

The subject of a further assay is Paracoccus sp. (4M6). Nature of the assay: Anti-adhesion test, strain 4M6. Type of assay: cell-based. To be noted: Paracoccus; for activity at 200 µM: 15 h, read-out: % of adhesion at 200 μM, 4M6; for EC50: read-out: EC50 (effective concentration to inhibit 50% of the adhesion), 4M6. As for the experimental part:
(§2) The anti-adhesion bioassays and toxicity tests are adapted from those disclosed in M. Camps, J.-F. Briand, L. Guentas-Dombrowsky, G. Culioli, A. Bazire and Y. Blache, Mar. Poll.
as §1

Assay [2] relates to Pseudoalteromonas lipolytica (TC8). Put plainly: Anti-adhesion test, strain TC8. The assay is classed as cell-based. To be noted: Pseudoalteromonas lipolytica; for activity at 200 µM: 15 h, read-out: % of adhesion at 200 μM, TC8; for EC50: read-out: EC50 (effective concentration to inhibit 50% of the adhesion), TC8. As for the experimental part: as §2, §1
Assay [3] deals with Pseudoalteromonas ulvae (TC14). Nature of the assay: Anti-adhesion test, strain TC14. The note with it: Pseudoalteromonas ulvae; for activity at 200 µM: 15 h; for EC50: read-out: EC50 (effective concentration to inhibit 50% of the adhesion). Type of assay: cell-based. As for the experimental part:
as §1
Pseudoalteromonas ulvae (TC14) was isolated in June 2010 in the Military Harbor of Toulon (Mediterranean Sea, France) as described in F. Brian-Jaisson, A. Ortalo-Magné, L. Guentas-Dombrowsky, F. Armougom, Y. Blache, M. Molmeret, Microb. Ecol., 2014, 68, 94-110.

The next assay relates to Shewanella sp. (TC11). Put plainly: Anti-adhesion test, strain TC11. Type of assay: cell-based. To be noted: for activity at 200 µM: 15 h, strain TC11, read-out: % of adhesion at 200 μM, TC11; for EC50: read-out: EC50 (effective concentration to inhibit 50% of the adhesion), strain TC11. As for the experimental part:
as §1
Shewanella sp. (TC11) was isolated in June 2010 in the Military Harbor of Toulon (Mediterranean Sea, France) as described in F. Brian-Jaisson, A. Ortalo-Magné, L. Guentas-Dombrowsky, F. Armougom, Y. Blache, M. Molmeret, Microb. Ecol., 2014, 68, 94-110.

For `CN(C)CCOc1ccc(CCn2cc(-c3ccc(-c4cn(CCc5ccc(OCCN(C)C)c(Cl)c5)nn4)cc3)nn2)cc1Cl` [SA63, 2-(4-(2-(4-(4-(1-(4-(2-(dimethylamino)ethoxy)-3-chlorophenethyl)-1H-1,2,3-triazol-4-yl)phenyl)-1H-1,2,3-triazol-1-yl)ethyl)-2-chlorophenoxy)-N,N-dimethylethanamine], the activity at 200 µM in the assay on Polaribacter sp. (TC5) stood at 37.3 ± 6%; with Paracoccus sp. (4M6), 43.6 ± 3.3%; in assay [2] it was 29 ± 3.2%; in assay [3], 30.6 ± 5.3%; with Shewanella sp. (TC11), 37 ± 1%. The EC50 in the assay with Polaribacter sp. (TC5) was found to be 133 ± 9.2 µM; in the assay on Paracoccus sp. (4M6), 96.6 ± 36.2 µM; in assay [2], 138 ± 10.6 µM; in assay [3], 122 ± 10.7 µM; with Shewanella sp. (TC11) it was 136 ± 5.1 µM. For the same compound, the IE % is 90.68% in assay [1] (0.1 ppm); 95.02% in assay [1] (0.3 ppm); 95.82% in assay [1] (0.5 ppm); 95.98% in assay [1] (2 ppm); 96.95% in assay [1] (10 ppm).

As to `CN(C)CCCOc1ccc(CCCn2cc(-c3ccc(-c4cn(CCCc5ccc(OCCCN(C)C)c(Br)c5)nn4)cc3)nn2)cc1Br` [SA32, 3-(4-(3-(4-(4-(1-(3-(4-(3-(dimethylamino)propoxy)-3-bromophenyl)propyl)-1H-1,2,3-triazol-4-yl)phenyl)-1H-1,2,3-triazol-1-yl)propyl)-2-bromophenoxy)-N,N-dimethylpropan-1-amine], the activity at 200 µM in the assay with Polaribacter sp. (TC5) amounted to 53.4 ± 13.8%; with Paracoccus sp. (4M6) it was 26.7 ± 5.6%; in assay [2], 17.7 ± 11.1%; in assay [3] it was 34.3 ± 2.6%; with Shewanella sp. (TC11) it was 17.4 ± 2.9%. Besides, the EC50 was determined as 114 ± 28.6 µM with Polaribacter sp. (TC5); 3.1 ± 8.6 µM in the assay on Paracoccus sp. (4M6); 109 ± 37.2 µM in assay [2]; 115 ± 20.5 µM in assay [3]; 61.1 ± 18.5 µM in the assay with Shewanella sp. (TC11). For the same compound, the IE % came to 79.01% in assay [1] (0.1 ppm); 95.43% in assay [1] (0.3 ppm); 96.30% in assay [1] (0.5 ppm); 96.54% in assay [1] (2 ppm); 95.58% in assay [1] (10 ppm).

With `CN(C)CCOc1ccc(-n2cc(-c3ccc(-c4cn(-c5ccc(OCCN(C)C)cc5)nn4)cc3)nn2)cc1` [SA61, 2-(4-(4-(4-(1-(4-(2-(dimethylamino)ethoxy)phenyl)-1H-1,2,3-triazol-4-yl)phenyl)-1H-1,2,3-triazol-1-yl)phenoxy)-N,N-dimethylethanamine], the activity at 200 µM is 89.4 ± 0.8% with Polaribacter sp. (TC5); 40.2 ± 0.3% in the assay on Paracoccus sp. (4M6); 45.6 ± 1.2% in assay [2]; 47.8 ± 1.7% in assay [3]; 19.3 ± 16.9% in the assay on Shewanella sp. (TC11). The IE % in assay [1] (0.1 ppm) is 87.42%; in assay [1] (0.3 ppm), 91.92%; in assay [1] (0.5 ppm), 94.34%; in assay [1] (2 ppm), 95.55%; in assay [1] (10 ppm), 95.93%. In addition, the EC50 with Paracoccus sp. (4M6) was 179 ± 44.9 µM; in assay [2], 184.4 ± 0.6 µM; in assay [3] it was 194 ± 13.7 µM; in the assay on Shewanella sp. (TC11) it was 140 ± 63.5 µM.

With `CN(C)CCCOc1ccc(CCn2cc(-c3ccc(-c4cn(CCc5ccc(OCCCN(C)C)c(Cl)c5)nn4)cc3)nn2)cc1Cl` [SA64, 3-(4-(2-(4-(4-(1-(4-(3-(dimethylamino)propoxy)-3-chlorophenethyl)-1H-1,2,3-triazol-4-yl)phenyl)-1H-1,2,3-triazol-1-yl)ethyl)-2-chlorophenoxy)-N,N-dimethylpropan-1-amine], the activity at 200 µM in the assay on Polaribacter sp. (TC5) was found to be 42.9 ± 4.5%; in the assay with Paracoccus sp. (4M6), 31 ± 12.4%; in assay [2] it was 20.2 ± 21.1%; in assay [3], 28.4 ± 14%; in the assay with Shewanella sp. (TC11), 42.6 ± 5.6%. Besides, the EC50 in the assay on Polaribacter sp. (TC5) came out at 150 ± 8.1 µM; in the assay on Paracoccus sp. (4M6), 43.3 ± 14.6 µM; in assay [2], 121 ± 76.8 µM; in assay [3], 147 ± 14.4 µM; in the assay on Shewanella sp. (TC11) it was 152 ± 20.4 µM. Moreover, the IE % in assay [1] (0.1 ppm) was 90.59%; in assay [1] (0.3 ppm) it was 94.18%; in assay [1] (0.5 ppm) it was 95.90%; in assay [1] (2 ppm), 96.37%; in assay [1] (10 ppm), 96.64%.

`CN(C)CCCOc1ccc(CCn2cc(-c3ccc(-c4cn(CCc5ccc(OCCCN(C)C)c(I)c5)nn4)cc3)nn2)cc1I` [SA46, 3-(4-(2-(4-(4-(1-(4-(3-(dimethylamino)propoxy)-3-iodophenethyl)-1H-1,2,3-triazol-4-yl)phenyl)-1H-1,2,3-triazol-1-yl)ethyl)-2-iodophenoxy)-N,N-dimethylpropan-1-amine]: the activity at 200 µM with Polaribacter sp. (TC5) came out at 22.4 ± 14.7%; with Paracoccus sp. (4M6), 26.6 ± 3.4%; in assay [2], 17.4 ± 14.3%; in assay [3] it was 30.2 ± 3.5%; with Shewanella sp. (TC11), 5.8 ± 1.2%. For the same compound, the EC50 with Polaribacter sp. (TC5) was 70.6 ± 8.9 µM; with Paracoccus sp. (4M6), 48.3 ± 48.9 µM; in assay [2] it was 71.5 ± 4.1 µM; in assay [3], 74.4 ± 8.3 µM; in the assay with Shewanella sp. (TC11), 22.2 ± 13.6 µM. For the same compound, the IE % in assay [1] (0.1 ppm) worked out at 82.23%; in assay [1] (0.3 ppm) it was 90.47%; in assay [1] (0.5 ppm), 94.51%; in assay [1] (2 ppm) it was 96.05%; in assay [1] (10 ppm), 94.96%.

Regarding `CN(C)CCOc1ccc(CCn2cc(-c3ccc(-c4cn(CCc5ccc(OCCN(C)C)c(I)c5)nn4)cc3)nn2)cc1I` [SA45, 2-(4-(2-(4-(4-(1-(4-(2-(dimethylamino)ethoxy)-3-iodophenethyl)-1H-1,2,3-triazol-4-yl)phenyl)-1H-1,2,3-triazol-1-yl)ethyl)-2-iodophenoxy)-N,N-dimethylethanamine], the activity at 200 µM with Polaribacter sp. (TC5) is 37.5 ± 13.3%; in the assay with Paracoccus sp. (4M6), 3.2 ± 4.6%; in assay [2], 30 ± 16.3%; in assay [3], 42.1 ± 2.9%; in the assay on Shewanella sp. (TC11) it was 9.3 ± 0.5%. Moreover, the EC50 was 147 ± 32.4 µM in the assay on Polaribacter sp. (TC5); 14.2 ± 3.2 µM in the assay on Paracoccus sp. (4M6); 135 ± 34.3 µM in assay [2]; 175 ± 21.2 µM in assay [3]; 129 ± 13.2 µM in the assay with Shewanella sp. (TC11). In addition, the IE % in assay [1] (0.1 ppm) came out at 78.07%; in assay [1] (0.3 ppm), 93.01%; in assay [1] (0.5 ppm) it was 94.67%; in assay [1] (2 ppm) it was 95.23%; in assay [1] (10 ppm), 96.09%.

As to `CN(C)CCCOc1ccc(-n2cc(-c3ccc(-c4cn(-c5ccc(OCCCN(C)C)c(Br)c5)nn4)cc3)nn2)cc1Br` [SA66, 3-(4-(4-(4-(1-(4-(3-(dimethylamino)propoxy)-3-bromophenyl)-1H-1,2,3-triazol-4-yl)phenyl)-1H-1,2,3-triazol-1-yl)-2-bromophenoxy)-N,N-dimethylpropan-1-amine], the activity at 200 µM is 23.3 ± 4% in the assay on Polaribacter sp. (TC5); 24.5 ± 6.9% with Paracoccus sp. (4M6); 31.7 ± 2.2% in assay [2]; 19 ± 6.5% in assay [3]; 45.5 ± 1.1% with Shewanella sp. (TC11). For the same compound, the EC50 in the assay with Polaribacter sp. (TC5) is 50.2 ± 10.9 µM; with Paracoccus sp. (4M6) it was 44.2 ± 25.2 µM; in assay [2] it was 141 ± 16.5 µM; in assay [3], 104 ± 4.6 µM; in the assay on Shewanella sp. (TC11), 165 ± 37.8 µM. Further, the IE % in assay [1] (0.1 ppm) was 85.79%; in assay [1] (0.3 ppm), 88.30%; in assay [1] (0.5 ppm) it was 90.41%; in assay [1] (2 ppm), 95.16%; in assay [1] (10 ppm), 96.48%.
